Experiments:
[1] = species on record: Homo sapiens; test: Selectivity ratio of Kobs for human TG2 to Kobs for activated human TG3
[2] = target: T1, Protein-glutamine gamma-glutamyltransferase E (Homo sapiens) (UniProt Q08188); test: Inactivation of activated human TG3 assessed as rate constant of enzyme inactivation using FRET- quenched A101 as substrate by fluorescence assay
T1 sequence (whole entry): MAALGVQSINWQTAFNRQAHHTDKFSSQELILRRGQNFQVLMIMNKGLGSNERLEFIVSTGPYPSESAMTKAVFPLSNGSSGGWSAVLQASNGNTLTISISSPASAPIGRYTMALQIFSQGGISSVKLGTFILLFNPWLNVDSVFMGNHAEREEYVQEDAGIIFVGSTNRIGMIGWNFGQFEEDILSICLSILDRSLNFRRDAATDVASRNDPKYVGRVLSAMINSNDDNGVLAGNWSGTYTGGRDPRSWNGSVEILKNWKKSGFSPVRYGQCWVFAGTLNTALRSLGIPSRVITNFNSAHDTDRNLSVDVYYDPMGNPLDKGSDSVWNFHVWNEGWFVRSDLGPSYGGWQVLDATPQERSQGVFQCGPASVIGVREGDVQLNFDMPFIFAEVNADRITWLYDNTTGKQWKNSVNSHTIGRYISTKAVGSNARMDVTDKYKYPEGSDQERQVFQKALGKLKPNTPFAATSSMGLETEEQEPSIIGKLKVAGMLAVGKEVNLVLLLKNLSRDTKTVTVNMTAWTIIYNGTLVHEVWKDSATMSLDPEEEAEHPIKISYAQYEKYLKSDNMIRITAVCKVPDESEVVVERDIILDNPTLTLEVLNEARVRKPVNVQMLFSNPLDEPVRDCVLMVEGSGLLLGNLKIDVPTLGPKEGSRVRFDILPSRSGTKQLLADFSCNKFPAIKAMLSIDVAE

[3] = target: T2, Coagulation factor XIII A chain (Homo sapiens) (UniProt P00488); test: Inactivation of human F13a assessed as rate constant of enzyme inhibition using FRET- quenched A101 as substrate by fluorescence assay
T2 sequence (whole entry): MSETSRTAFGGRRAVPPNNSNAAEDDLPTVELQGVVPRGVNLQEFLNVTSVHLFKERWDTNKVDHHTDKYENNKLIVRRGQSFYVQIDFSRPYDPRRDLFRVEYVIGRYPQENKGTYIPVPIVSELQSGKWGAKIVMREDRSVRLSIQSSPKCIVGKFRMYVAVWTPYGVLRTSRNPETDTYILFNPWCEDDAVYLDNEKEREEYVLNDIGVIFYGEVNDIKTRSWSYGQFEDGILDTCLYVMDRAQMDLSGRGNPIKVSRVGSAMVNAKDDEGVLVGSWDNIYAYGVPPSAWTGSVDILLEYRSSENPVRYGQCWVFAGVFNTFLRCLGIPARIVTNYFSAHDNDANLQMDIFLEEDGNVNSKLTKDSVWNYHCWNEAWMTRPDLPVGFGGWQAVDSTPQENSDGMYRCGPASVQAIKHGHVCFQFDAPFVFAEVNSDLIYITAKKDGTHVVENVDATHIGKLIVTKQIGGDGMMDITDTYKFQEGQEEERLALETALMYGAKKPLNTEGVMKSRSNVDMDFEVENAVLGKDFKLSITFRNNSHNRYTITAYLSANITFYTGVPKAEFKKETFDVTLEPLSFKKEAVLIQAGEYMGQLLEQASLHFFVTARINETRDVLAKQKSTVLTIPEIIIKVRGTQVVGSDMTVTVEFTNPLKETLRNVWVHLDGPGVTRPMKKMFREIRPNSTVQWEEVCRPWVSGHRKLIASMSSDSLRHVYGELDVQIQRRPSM

[4] = Inhibition of human ECS cells invasion by using Engelbreth-Holm-Swarm mouse tumor matrigel measured after 18 hrs by DAPI staining-based flourescence microscopy; assay type: functional, cell-based

Selectivity ratio [1]: 390 | K [2]: 1.01 ×10⁻³ /min | K [3]: 5.91 ×10⁻³ /min | EC50 [4]: > 20 µM
SMILES: C=CC(=O)NCCCC[C@H](NC(=O)OCc1ccccc1)C(=O)NCCOCCOCCNS(=O)(=O)c1cccc2c(N(C)C)cccc12

From ChEMBL document CHEMBL4017513, “Structure-Activity Relationships of Potent, Targeted Covalent Inhibitors That Abolish Both the Transamidation and GTP Binding Activities of Human Tissue Transglutaminase” (J Med Chem, 2017)
